Results from PMC6467921, “Biosynthesis of DHGA12 and its roles in Arabidopsis seedling establishment” (Nature Communications, 2019).

Key:
GID1c = target: T1, GID1c (Arabidopsis thaliana, UniProt Q940G6); assay: microscale thermophoresis (MST), NT-647-labeled GST-GID1c; assay type: binding
T1 construct: glutathione S-transferase (GST)-tagged GID1c
T1 sequence (Q940G6 2-344): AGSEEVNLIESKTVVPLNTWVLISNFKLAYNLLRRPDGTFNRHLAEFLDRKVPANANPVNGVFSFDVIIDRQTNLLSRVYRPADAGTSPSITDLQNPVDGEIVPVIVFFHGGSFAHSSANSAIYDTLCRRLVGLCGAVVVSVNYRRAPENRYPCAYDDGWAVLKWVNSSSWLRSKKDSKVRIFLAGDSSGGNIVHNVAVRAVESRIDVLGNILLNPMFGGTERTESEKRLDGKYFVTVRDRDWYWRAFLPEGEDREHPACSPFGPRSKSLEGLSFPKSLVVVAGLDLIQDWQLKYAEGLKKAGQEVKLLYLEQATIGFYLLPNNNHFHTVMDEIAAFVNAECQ

GAS2 = target: T2, GAS2 (Arabidopsis thaliana, UniProt F4INZ9); assay: product of in vitro GAS2 reaction identified by LC-MS, compared with synthetic standard; assay type: biochemical
T2 construct: gene GIM2; recombinant purified GAS2
T2 sequence (F4INZ9 1-366): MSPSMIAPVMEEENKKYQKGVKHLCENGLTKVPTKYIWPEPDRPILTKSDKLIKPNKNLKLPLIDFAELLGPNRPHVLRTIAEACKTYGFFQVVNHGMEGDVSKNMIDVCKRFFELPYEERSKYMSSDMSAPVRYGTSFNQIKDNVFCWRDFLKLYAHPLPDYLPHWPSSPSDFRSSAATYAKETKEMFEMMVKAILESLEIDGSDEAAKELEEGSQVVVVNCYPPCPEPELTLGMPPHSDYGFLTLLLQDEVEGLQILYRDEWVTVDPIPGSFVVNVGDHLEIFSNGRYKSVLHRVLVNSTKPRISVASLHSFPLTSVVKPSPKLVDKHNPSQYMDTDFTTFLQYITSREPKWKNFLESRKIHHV

**Q.** For `C=C1C[C@]23C[C@H]1CC[C@H]2[C@@]12CC[C@H](O)[C@@](C)(C(=O)O1)[C@H]2[C@@H]3C(=O)O` [GA4], which Kd (GID1c) is on record?
**A.** Its Kd is 680 ± 120 nM.

**Q.** How did the Kd (GID1c) turn out when `C[C@@]12CCC[C@@](C)(C(=O)O)[C@H]1[C@H](C(=O)O)[C@@]13C[C@@H](CC[C@@H]21)[C@](C)(O)C3` [DHGA12] was run?
**A.** Its Kd is 1450 ± 250 nM.

**Q.** What about the “product of in vitro GAS2 reaction identified by LC-MS, compared with synthetic s” value (GAS2) of the same compound?
**A.** The value was “Our data demonstrate that GAS2 exhibits hydration activity using GA12 as a substrate to produce DHGA12”.
